Results on three molecules are retold here after publication PMC3445516 (PLoS ONE, 2012).

Read-outs that look alike come from different tables or passages of the source.

Series [1] deals with T1, TGFBR1 (Homo sapiens, UniProt P36897).
T1 construct: purchased Ambit Biosciences (KINOMEscan)
T1 sequence (P36897 34-503): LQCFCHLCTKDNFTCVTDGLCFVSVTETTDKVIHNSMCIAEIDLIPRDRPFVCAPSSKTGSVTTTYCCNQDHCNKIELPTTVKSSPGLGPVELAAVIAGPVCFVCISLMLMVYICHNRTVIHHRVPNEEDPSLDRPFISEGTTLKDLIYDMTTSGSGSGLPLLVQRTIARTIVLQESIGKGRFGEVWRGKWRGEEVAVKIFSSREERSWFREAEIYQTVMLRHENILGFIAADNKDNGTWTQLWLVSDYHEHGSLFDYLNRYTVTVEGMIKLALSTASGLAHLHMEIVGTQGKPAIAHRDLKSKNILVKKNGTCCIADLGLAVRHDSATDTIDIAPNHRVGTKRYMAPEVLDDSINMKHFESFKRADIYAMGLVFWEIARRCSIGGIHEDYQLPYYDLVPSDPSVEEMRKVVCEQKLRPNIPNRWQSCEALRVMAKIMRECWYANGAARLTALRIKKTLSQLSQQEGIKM
Put plainly: Ambit kinase profiling, competition binding. On the procedure:
(§1) Also included in the kinase profile are four isoforms of PKC (δ, ε, η, θ) and eight isoforms of CAMKs (CAMKIα, δ, γ; CAMKIIα, β, δ, γ; CAMK4).
(§2) The global kinase profiling experiment was performed by Ambit Biosciences.

For series [2], the target named is T2, CAMKIγ (Homo sapiens, UniProt Q96NX5).
T2 construct: purchased Ambit Biosciences (KINOMEscan)
The series is described as follows: Ambit kinase profiling, competition binding. Particulars: for competition: CAMKIγ, 10 µM. On the procedure:
as §1, §2

Series [3] has as its target PKCδ (Homo sapiens, UniProt Q05655). The series is described as follows: Ambit kinase profiling, competition binding. The settings on record: for competition: PKC δ, 10 µM. On the set-up: purchased Ambit Biosciences (KINOMEscan). As to the method: as §1, §2
On the set-up of series [4]: method as in PMID 14561090. Particulars: cited from earlier work.
Series [5] addresses p38α (Homo sapiens, UniProt Q16539). Details: method as in PMID 14561090. Particulars: read-out: in vitro IC50 for p38α; cited from earlier work.
Series [6] has as its target T3, recombinant GST-tagged human protein kinase D1 (PKD1) (Homo sapiens, UniProt Q15139).
T3 construct: purchased Enzo Life sciences (Farmingdale, NY)
T3 sequence (Q15139 1-912): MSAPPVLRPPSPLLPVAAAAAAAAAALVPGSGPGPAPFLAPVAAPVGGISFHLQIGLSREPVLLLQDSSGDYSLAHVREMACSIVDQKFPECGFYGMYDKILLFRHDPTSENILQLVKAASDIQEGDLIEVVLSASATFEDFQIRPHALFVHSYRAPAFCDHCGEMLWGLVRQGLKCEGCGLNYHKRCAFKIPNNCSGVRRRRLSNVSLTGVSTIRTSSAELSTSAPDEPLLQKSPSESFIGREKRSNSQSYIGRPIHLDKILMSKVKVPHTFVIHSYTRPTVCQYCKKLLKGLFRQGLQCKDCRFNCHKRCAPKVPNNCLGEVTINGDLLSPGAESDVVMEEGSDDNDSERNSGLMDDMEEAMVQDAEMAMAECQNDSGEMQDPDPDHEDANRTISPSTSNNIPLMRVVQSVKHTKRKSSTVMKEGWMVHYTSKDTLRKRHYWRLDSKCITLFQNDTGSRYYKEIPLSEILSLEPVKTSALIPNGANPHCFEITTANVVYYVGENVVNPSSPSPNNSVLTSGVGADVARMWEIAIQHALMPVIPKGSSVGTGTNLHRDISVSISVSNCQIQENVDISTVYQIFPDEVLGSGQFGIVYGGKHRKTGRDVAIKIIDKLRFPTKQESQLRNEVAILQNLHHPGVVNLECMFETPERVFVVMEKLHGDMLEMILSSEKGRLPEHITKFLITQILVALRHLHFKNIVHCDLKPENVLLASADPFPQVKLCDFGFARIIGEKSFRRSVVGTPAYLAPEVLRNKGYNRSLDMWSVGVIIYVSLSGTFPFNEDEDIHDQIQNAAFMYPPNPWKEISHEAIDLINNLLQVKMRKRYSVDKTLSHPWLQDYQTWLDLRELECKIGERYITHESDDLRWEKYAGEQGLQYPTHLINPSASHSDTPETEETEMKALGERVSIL
The series is described as follows: In vitro radiometric PKD1 kinase assay. The settings on record: read-out: Inhibition of PKD1. In kind it is biochemical. On the procedure: All compounds were given distinct UPCMLD (University of Pittsburgh Center for Chemical Methodologies and Library Development) IDs and were then assigned numerical IDs for convenient data display. Evaluation of each compound was carried out in triplicate at a single concentration (1 µM). Our previously described PKD1 inhibitor, kb-NB142-70, and DMSO (solvent alone) were used as positive and negative controls, respectively. Percent residual kinase activity was calculated based on that of the negative control (DMSO).
Kinase active recombinant GST-tagged human protein kinase D1 (PKD1) was obtained from Enzo Life sciences (Farmingdale, NY). DMSO was purchased from Sigma. Recombinant PKCα, PKCδ and CAMKIIα were obtained from SignalChem (Richmond, BC, Canada). ATP was purchased from Fisher Scientific. HDAC5 substrate peptide was synthesized by Biobasic Canada Inc. (Markham, ON). Myelin basic protein 4–14 was purchased from AnaSpec Inc. (Fremont, CA). The targeted kinase inhibitor library was obtained from Hoffmann-La Roche, Inc.
1.2 µg of HDAC-5 was used as substrate in the reaction. Phosphorylation of HDAC5 was detected in a kinase reaction having 1 µCi [γ-^32P] […] The reaction was incubated at 30° for 10 minutes and 25 µL of the reaction was spotted on Whatman P81 filter paper. The filter paper was washed 3 times in 0.5% phosphoric acid, air dried and counted using Beckman LS6500 multipurpose scintillation counter. Percent PKD1 inhibition was graphed using GraphPad Prism software 5.0.

Series [7] has as its system LPS-stimulated TNFα synthesis. On the set-up: method as in PMID 14561090. Particulars: acute rat model of LPS-stimulated TNFα synthesis; cited from earlier work.
Series [8] relates to FLT3(ITD). The series is described as follows: Ambit kinase profiling, competition binding. On the set-up: species or system human. Particulars: compound concentration 10 uM. The text has this:
(§3) Supplement pone.0044653.s004.xls, sheet "Compound 122" | column: Percent Competition

For series [9], the target named is T4, RPS6KA5(Kin.Dom.2-C-terminal) (Homo sapiens, UniProt O75582).
T4 construct: RPS6KA5(Kin.Dom.2-C-terminal); purchased Ambit Biosciences (KINOMEscan)
The series is described as follows: Ambit kinase profiling, competition binding. The settings on record: compound concentration 10 uM, read-out: Percent Competition.
From the text: as §3

The target of series [10] is T5, TIE1 (Homo sapiens, UniProt P35590).
T5 construct: purchased Ambit Biosciences (KINOMEscan)
The series is described as follows: Ambit kinase profiling, competition binding. The settings on record: compound concentration 10 uM, read-out: Percent Competition.
From the text: as §3

Series [11] deals with T6, DCAMKL1 (Homo sapiens, UniProt O15075).
T6 construct: purchased Ambit Biosciences (KINOMEscan)
The series is described as follows: Ambit kinase profiling, competition binding. Particulars: compound concentration 10 uM.
From the text: as §3

Sequence of PKCδ (Q05655 whole entry): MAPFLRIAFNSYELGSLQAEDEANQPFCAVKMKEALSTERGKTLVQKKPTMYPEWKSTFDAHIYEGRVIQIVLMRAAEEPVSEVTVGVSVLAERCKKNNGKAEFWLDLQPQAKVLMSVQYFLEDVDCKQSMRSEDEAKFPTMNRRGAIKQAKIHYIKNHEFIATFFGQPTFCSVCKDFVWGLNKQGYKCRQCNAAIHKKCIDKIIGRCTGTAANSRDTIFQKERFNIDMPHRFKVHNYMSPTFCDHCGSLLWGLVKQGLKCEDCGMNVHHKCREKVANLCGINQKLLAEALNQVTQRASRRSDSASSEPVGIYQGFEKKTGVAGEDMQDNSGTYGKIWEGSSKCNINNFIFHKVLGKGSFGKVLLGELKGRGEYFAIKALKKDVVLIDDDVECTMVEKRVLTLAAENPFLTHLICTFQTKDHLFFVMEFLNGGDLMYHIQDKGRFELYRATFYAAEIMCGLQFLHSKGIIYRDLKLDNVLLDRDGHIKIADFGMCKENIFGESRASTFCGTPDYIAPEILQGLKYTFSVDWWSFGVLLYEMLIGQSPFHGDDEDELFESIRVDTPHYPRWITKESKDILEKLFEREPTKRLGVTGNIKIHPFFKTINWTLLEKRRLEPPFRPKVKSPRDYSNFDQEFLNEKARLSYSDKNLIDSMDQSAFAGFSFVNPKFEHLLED
T2 sequence (Q96NX5 whole entry): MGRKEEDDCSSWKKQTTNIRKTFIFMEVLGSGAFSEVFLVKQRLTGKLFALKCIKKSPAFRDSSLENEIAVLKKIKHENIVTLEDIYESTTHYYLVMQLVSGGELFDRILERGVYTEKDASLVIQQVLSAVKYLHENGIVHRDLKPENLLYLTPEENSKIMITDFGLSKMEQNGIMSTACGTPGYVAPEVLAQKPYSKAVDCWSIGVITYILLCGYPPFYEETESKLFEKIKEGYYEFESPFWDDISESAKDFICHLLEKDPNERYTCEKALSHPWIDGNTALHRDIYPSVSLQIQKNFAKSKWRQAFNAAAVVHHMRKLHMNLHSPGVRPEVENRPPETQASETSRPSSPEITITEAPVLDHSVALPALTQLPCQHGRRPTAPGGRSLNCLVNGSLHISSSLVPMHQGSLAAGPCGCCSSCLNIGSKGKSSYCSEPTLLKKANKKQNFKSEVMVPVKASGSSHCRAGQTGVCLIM
T5 sequence (P35590 22-1138): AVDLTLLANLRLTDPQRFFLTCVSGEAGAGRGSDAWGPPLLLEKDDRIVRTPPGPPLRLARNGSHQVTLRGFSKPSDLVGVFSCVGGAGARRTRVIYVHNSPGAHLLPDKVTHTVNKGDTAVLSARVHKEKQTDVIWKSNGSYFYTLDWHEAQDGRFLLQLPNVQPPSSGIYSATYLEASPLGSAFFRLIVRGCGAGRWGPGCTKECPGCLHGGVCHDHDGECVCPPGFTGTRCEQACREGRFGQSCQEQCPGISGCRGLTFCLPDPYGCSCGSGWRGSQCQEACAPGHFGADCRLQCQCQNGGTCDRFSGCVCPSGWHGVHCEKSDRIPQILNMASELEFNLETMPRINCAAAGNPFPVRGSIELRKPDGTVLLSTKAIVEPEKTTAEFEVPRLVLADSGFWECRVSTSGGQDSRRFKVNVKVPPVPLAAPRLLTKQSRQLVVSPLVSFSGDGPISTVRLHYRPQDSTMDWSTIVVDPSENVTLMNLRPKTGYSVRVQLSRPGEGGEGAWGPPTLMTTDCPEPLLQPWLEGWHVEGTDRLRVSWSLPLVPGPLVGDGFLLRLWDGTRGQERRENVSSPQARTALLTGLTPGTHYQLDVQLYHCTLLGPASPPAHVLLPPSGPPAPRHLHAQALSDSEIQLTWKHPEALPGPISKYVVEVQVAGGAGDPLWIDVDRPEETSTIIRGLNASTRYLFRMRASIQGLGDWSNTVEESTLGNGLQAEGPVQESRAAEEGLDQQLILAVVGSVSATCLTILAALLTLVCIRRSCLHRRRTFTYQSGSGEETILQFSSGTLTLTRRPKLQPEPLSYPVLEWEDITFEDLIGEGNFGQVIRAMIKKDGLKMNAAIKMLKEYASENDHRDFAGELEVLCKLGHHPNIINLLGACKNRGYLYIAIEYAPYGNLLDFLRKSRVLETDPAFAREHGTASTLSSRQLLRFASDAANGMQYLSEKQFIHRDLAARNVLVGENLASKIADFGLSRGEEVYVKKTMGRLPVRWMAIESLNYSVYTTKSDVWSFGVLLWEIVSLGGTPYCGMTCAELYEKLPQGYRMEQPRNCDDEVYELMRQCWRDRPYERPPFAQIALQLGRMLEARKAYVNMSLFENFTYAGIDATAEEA
Sequence of p38α (Q16539 whole entry): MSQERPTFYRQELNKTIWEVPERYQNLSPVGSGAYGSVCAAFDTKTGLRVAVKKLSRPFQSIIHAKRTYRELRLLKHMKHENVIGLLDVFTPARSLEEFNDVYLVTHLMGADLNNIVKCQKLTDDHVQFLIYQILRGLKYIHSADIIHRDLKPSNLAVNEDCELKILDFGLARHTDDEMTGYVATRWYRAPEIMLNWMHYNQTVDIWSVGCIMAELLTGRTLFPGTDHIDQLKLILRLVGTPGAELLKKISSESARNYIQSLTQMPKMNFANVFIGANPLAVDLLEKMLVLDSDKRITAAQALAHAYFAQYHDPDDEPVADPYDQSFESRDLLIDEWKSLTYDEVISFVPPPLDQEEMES
T6 sequence (O15075 whole entry): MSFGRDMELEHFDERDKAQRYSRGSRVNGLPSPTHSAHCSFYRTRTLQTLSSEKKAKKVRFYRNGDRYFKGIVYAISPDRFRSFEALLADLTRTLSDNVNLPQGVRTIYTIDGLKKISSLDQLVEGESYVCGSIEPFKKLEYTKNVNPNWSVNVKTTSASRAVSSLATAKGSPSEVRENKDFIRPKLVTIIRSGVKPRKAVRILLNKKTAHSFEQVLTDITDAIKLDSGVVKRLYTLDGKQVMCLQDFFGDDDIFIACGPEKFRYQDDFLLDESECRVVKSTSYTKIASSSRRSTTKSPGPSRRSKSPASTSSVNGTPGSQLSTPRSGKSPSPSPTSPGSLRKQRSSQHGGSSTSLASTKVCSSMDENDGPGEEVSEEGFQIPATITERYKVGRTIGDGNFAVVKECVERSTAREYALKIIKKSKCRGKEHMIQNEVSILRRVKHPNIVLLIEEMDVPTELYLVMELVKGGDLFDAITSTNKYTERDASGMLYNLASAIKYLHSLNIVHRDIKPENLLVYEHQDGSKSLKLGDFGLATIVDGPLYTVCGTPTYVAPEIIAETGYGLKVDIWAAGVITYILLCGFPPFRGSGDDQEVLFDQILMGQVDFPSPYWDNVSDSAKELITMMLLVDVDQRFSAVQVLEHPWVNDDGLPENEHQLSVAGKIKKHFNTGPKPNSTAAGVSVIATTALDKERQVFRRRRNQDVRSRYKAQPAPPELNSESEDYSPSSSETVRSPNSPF
T4 sequence (O75582 388-802 limits assumed): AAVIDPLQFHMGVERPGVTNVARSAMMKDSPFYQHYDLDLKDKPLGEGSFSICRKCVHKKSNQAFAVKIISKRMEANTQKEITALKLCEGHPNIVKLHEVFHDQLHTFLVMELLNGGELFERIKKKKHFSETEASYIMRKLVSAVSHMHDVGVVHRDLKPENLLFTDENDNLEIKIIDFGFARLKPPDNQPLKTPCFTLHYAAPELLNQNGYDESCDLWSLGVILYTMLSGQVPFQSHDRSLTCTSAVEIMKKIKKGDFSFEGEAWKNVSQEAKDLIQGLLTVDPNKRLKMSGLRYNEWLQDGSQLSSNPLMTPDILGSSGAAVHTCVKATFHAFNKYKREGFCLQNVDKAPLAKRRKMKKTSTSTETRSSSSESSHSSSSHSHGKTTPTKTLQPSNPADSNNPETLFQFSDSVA

In the case of `CC(O)CNc1cc(-c2[nH]c3cccnc3c2-c2ccc(F)cc2)ccn1` (stereo not drawn) [Compound 140], the inhibition at 10 µM in series [1] (read-out: % Competition) is under 50%. Also, the competition in series [2] and in series [3] was under 50% in each case. Besides, the “pharmacokinetic (PK) parameters” value in series [4] is “favorable pharmacokinetic (PK) parameters”. Further, in series [5], the IC50 is 1 nM. Besides, in series [6], the inhibition at 1 µM amounted to 80%. Also, the in vivo efficacy result in [7] is recorded as “in vivo efficacy has been demonstrated”.
`Fc1ccc(-c2c(-c3ccncc3)[nH]c3nccnc23)cc1` [RO1155697-000-005]: the inhibition at 10 µM in series [1] (TGFBR1, compound concentration 10 uM, read-out: Percent Competition) is 91%; in series [2] (CAMK1G, compound concentration 10 uM, read-out: Percent Competition), under 50%; in series [3] (PRKCD, compound concentration 10 uM, read-out: Percent Competition), under 50%; in [9] it was under 50%; in series [10], under 50%. The “Percent Competition” value in [8] and in series [11] was under 50% throughout.
As for `Fc1ccc(-c2c(-c3ccncc3)[nH]c3nccnc23)cc1` [Compound 122], in [1] (TGFBR1, 10 µM, read-out: % Competition), the inhibition at 10 µM was determined as 91%. In addition, the competition in series [2] and in series [3] was under 50% throughout. Further, the inhibition at 1 µM in series [6] (1 µM, triplicate determinations) worked out at 62%.

The term IC50 denotes the concentration needed to halve the response being measured.
